Assay results as given in patent US20230059136A1, “THE COMPOUNDS AND COMPOSITIONS FOR TREATING CONDITIONS ASSOCIATED WITH NLRP ACTIVITY” (Novartis AG, priority 2018, published 2023).
pIC50: −log10 of the molar value.

Each molecule was assayed on IL-1β production in PMA-differentiated THP-1 cells (assay: IL-1β production in PMA-differentiated THP-1 cells stimulated with gramicidin (hTHP-1 assay containing 2% fetal bovine serum)). Conditions: Table B1; 2% fetal bovine serum; class symbols; read-out: hTHP-1 IC50 (Average IC50 of compounds in hTHP-1 assay).
Format: cell-based, human
Experimental: Procedure 1: IL-1β Production in PMA-Differentiated THP-1 Cells Stimulated with Gramicidin.
THP-1 cells were purchased from the American Type Culture Collection and sub-cultured according to instructions from the supplier. Cells were cultured in complete RPMI 1640 (containing 10% heat inactivated FBS, penicillin (100 units/ml) and streptomycin (100 μg/ml)), and maintained in log phase prior to experimental setup. Prior to the experiment, compounds were dissolved in dimethyl sulfoxide (DMSO) to generate a 30 mM stock. The compound stock was first pre-diluted in DMSO to 3, 0.34, 0.042 and 0.0083 mM intermediate concentrations and subsequently spotted using Echo550 liquid handler into an empty 384-well assay plate to achieve desired final concentration (e.g. 100, 33, 11, 3.7, 1.2, 0.41, 0.14, 0.046, 0.015, 0.0051, 0.0017 μM). DMSO was backfilled in the plate to achieve a final DMSO assay concentration of 0.37%. The plate was then sealed and stored at room temperature until required.
THP-1 cells were treated with PMA (Phorbol 12-myristate 13-acetate) (20 ng/ml) for 16-18 hours. On the day of the experiment the media was removed and adherent cells were detached with trypsin for 5 minutes. Cells were then harvested, washed with complete RPMI 1640, spun down, and resuspended in RPMI 1640 (containing 2% heat inactivated FBS, penicillin (100 units/ml) and streptomycin (100 μg/ml). The cells were plated in the 384-well assay plate containing the spotted compounds at a density of 50,000 cells/well (final assay volume 50 μl). Cells were incubated with compounds for 1 hour and then stimulated with gramicidin (5 μM) (Enzo) for 2 hours. Plates were then centrifuged at 340 g for 5 min. Cell free supernatant (40 μL) was collected using a 96-channel PlateMaster (Gilson) and the production of IL-1β was evaluated by HTRF (cisbio). The plates were incubated for 18 h at 4° C. and read using the preset HTRF program (donor emission at 620 nm, acceptor emission at 668 nm) of the SpectraMax i3x spectrophotometer (Molecular Devices, software SoftMax 6). A vehicle only control and a dose titration of CRID3 (100-0.0017 μM) were run concurrently with each experiment.
Procedure 2: IL-1β Production in PMA-Differentiated THP-1 Cells Stimulated with Gramicidin.
THP-1 cells were purchased from the American Type Culture Collection and sub-cultured according to instructions from the supplier. Prior to experiments, cells were cultured in complete RPMI 1640 (containing 10% heat inactivated FBS, penicillin (100 units/ml) and streptomycin (100 μg/ml)), and maintained in log phase prior to experimental setup. Prior to the experiment THP-1 were treated with PMA (Phorbol 12-myristate 13-acetate) (20 ng/ml) for 16-18 hours. Compounds were dissolved in dimethyl sulfoxide (DMSO) to generate a 30 mM stock. On the day of the experiment the media was removed and adherent cells were detached with trypsin for 5 minutes. Cells were then harvested, washed with complete RPMI 1640, spun down, resuspended in RPMI 1640 (containing 2% heat inactivated FBS, penicillin (100 units/ml) and streptomycin (100 μg/ml). The cells were plated in a 384-well plate at a density of 50,000 cells/well (final assay volume 50 μl). Compounds were first dissolved in assay medium to obtain a 5× top concentration of 500 μM. 10 step dilutions (1:3) were then undertaken in assay medium containing 1.67% DMSO. 5× compound solutions were added to the culture medium to achieve desired final concentration (e.g. 100, 33, 11, 3.7, 1.2, 0.41, 0.14, 0.046, 0.015, 0.0051, 0.0017 μM). Final DMSO concentration was at 0.37%. Cells were incubated with compounds for 1 hour and then stimulated with gramicidin (5 μM) (Enzo) for 2 hours. Plates were then centrifuged at 340 g for 5 min. Cell free supernatant (40 μL) was collected using a 96-channel PlateMaster (Gilson) and the production of IL-1β was evaluated by HTRF (cisbio). A vehicle only control and a dose titration of CRID3 (100-0.0017 μM) were run concurrently with each experiment. […]

Row | pIC50 | SMILES
1 | 4.52 to 5.30 | COCc1cc(C(C)C)c(CC(=O)N=S(N)(=O)c2sc(C(C)(C)O)nc2CO)c(C(C)C)c1 (single isomer, unassigned) [Example 69, (R)- or (S)-2-(2,6-diisopropyl-4-(methoxymethyl)phenyl)-N-(4-(hydroxymethyl)-2-(2-hydroxypropan-2-yl)thiazol-5-ylsulfonimidoyl)acetamide]
2 | 6.00 to 6.70 | CC(C)c1cc(C#N)cc(C2CC2)c1CC(=O)N=S(N)(=O)c1sc(C(C)(C)O)nc1CO (single isomer, unassigned) [Example 70, (S)- or (R)-(4-cyano-2-cyclopropyl-6-isopropylphenyl)-N-(4-(hydroxymethyl)-2-(2-hydroxypropan-2-yl)thiazol-5-ylsulfonimidoyl)acetamide]
3 | 4.52 to 5.30 | CC(C)c1cc(C#N)cc(C2CC2)c1CC(=O)N=S(N)(=O)c1sc(C(C)(C)O)nc1CO (single isomer, unassigned) [Example 71, (R)- or (S)-2-(4-cyano-2-cyclopropyl-6-isopropylphenyl)-N-(4-(hydroxymethyi)-2-(2-hydroxypropan-2-yl)thiazol-5-ylsulfonimidoyl)acetamide]
4 | 6.70 to 7.40 | CC(C)c1cc(OC(F)F)cc(C(C)C)c1CC(=O)N=S(N)(=O)c1sc(C(C)(C)O)cc1F (single isomer, unassigned) [Example 76, (S)- or (R)-2-(4-(difluoromethoxy)-2,6-diisopropylphenyl)-N-(3-fluoro-5-(2-hydroxypropan-2-yl)thiophen-2-ylsulfonimidoyl)acetamide]
5 | 5.30 to 6.00 | CC(C)c1cc(OC(F)F)cc(C(C)C)c1CC(=O)N=S(N)(=O)c1sc(C(C)(C)O)cc1F (single isomer, unassigned) [Example 77, (R)- or (S)-(4-(difluoromethoxy)-2,6-diisopropylphenyl)-N-(3-fluoro-5-(2-hydroxypropan-2-yl)thiophen-2-ylsulfonimidoyl)acetamide]
6 | 6.00 to 6.70 | CCc1cc(OC(F)F)cc(C(C)C)c1CC(=O)N=S(N)(=O)c1sc(C(C)(C)O)cc1F (single isomer, unassigned) [Example 78, (S)- or (R)-2-(4-(difluoromethoxy)-2-ethyl-6-isopropylphenyl)-N-(3-fluoro-5-(2-hydroxypropan-2-yl)thiophen-2-ylsulfonimidoyl)acetamide]
7 | 4.52 to 5.30 | CCc1cc(OC(F)F)cc(C(C)C)c1CC(=O)N=S(N)(=O)c1sc(C(C)(C)O)cc1F (single isomer, unassigned) [Example 79, (R)- or (S)-2-(4-(difluoromethoxy)-2-ethyl-6-isopropylphenyl)-N-(3-fluoro-5-(2-hydroxypropan-2-yl)thiophen-2-ylsulfonimidoyl)acetamide]
8 | 7.40 to 8.10 | CC(C)c1cc(C(F)F)cc(C(C)C)c1CC(=O)N=S(N)(=O)c1sc(C(C)(C)O)cc1F (single isomer, unassigned) [Example 80, (S)- or (R)-2-(4-(difIuoromethyl)-2,6-diisopropylphenyl)-N-(3-fluoro-5-(2-hydroxypropan-2-yl)thiophen-2-ylsulfonimidoyl)acetamide]
9 | 6.00 to 6.70 | CC(C)c1cc(C(F)F)cc(C(C)C)c1CC(=O)N=S(N)(=O)c1sc(C(C)(C)O)cc1F (single isomer, unassigned) [Example 81, (R)- or (S)-2-(4-(difluoromethyl)-2,6-diisopropylphenyl)-N-(3-fluoro-5-(2-hydroxypropan-2-yl)thiophen-2-ylsulfonimidoyl)acetamide]
10 | 4.52 to 5.30 | CC(C)c1cc(C#N)cc(C(C)C)c1CC(=O)N=S(N)(=O)c1ncc(C(C)(C)O)s1 (single isomer, unassigned) [Example 82, (R)- or (S)-2-(4-cyano-2,6-diisopropylphenyl)-N-(5-(2-hydroxypropan-2-yl)thiazol-2-ylsulfonimidoyl)acetamide]
11 | 6.70 to 7.40 | CC(C)c1cc(C#N)cc(C(C)C)c1CC(=O)N=S(N)(=O)c1ncc(C(C)(C)O)s1 (single isomer, unassigned) [Example 83, (S)- or (R)-2-(4-cyano-2,6-diisopropylphenyl)-N-(5-(2-hydroxypropan-2-yl)thiazol-2-ylsulfonimidoyl)acetamide]
